Measurements reported in US20050281867A1, “Nitric oxide inducing agents” (priority 2003, published 2005).

Key:
[1] = test system: nitric oxide; assay: Nitric oxide production / systemic NO levels in treated patients; type: in vivo, human
Method: Moreover, it was observed that a few patients who received treatment with an agent of the instant invention began to develop resistance due to down-regulation of the insulin receptor. This effect was reversed by co-administering low dose aspirin (15 mg) with the agent. Upon co-administration, the production of nitric oxide returned to normal within 30 minutes of treatment. While the instant agents work through the insulin receptor, aspirin appeared to be insulin-independent and was nitric oxide mediated. Accordingly, one embodiment of the instant methods is the co-administration, i.e., simultaneous or sequential, of low dose aspirin (e.g., ranging from 5-100 mg) with an agent of the instant invention. […] Expression of maspin, a serine protease inhibitor (serpin) known to be a potent anticancer protein, is severely impaired in breast cancer tissue. […] Similarly, production of alpha interferon-a, a widely used anticancer cytokine noted for its antiproliferative and anticancer property, is severely impaired in both malignant breast cancer tissue and non-malignant neutrophils in breast cancer. As with maspin, increases in nitric oxide levels increased production of alpha-interferon to normal ranges. By administering an agent of the instant invention, the auto immunity that is T-cell induced is improved through the neutrophils.

[2] = test system: wide variety of cancers; assay: Topical treatment of cancer patients, overall statements; type: in vivo, human
Excerpt: A total of 8,125 patients with different kinds of cancer participated in this study. These patients were divided into two groups. Blood samples were collected from 80 patients designated as Group I. These patients included 45 males between 20-65 years old, and 35 females between 25-55 years old. These patients were newly diagnosed patients with cancer who at the time of blood donation had not taken any medicine at least for 14 days and had not yet undergone any treatment of cancer including radiation or chemotherapy but opted for surgery. None of the patients had overt diabetes mellitus, systemic hypertension or suffered coronary artery disease at presentation. None of these patients had any other diagnosed life threatening condition.
Two categories of patients were included in Group II. The first category included 6,705 patients who had previously undergone all available cancer treatments including surgery, radiation and chemotherapy. At the time of participation in the study these patients had exhausted all therapeutic options and were under the care of private physicians and family members in their home. […] At the time of the participation in the study all patients, in the Group II in the second category had stopped taking treatments for cancer, such as chemotherapy and radiation, for at least 2 months. The diagnostic procedures and condition of the patients at presentation are described in Table 1. All institutionalized patients in group II were excluded from the study to avoid ambiguity. As in the case of Group I the patients with any other life threatening conditions or severe infection were also excluded from this group.
A control group of 150 patients were selected randomly from the Group II patients. […] Since the effect of the agents of the instant invention on the neutralization of IANOS antibody in vivo in cancer patients (responders) could be noticed by immunoblot technique (end-point) in 7 days, the patients in the placebo group received the vehicle for 7 days; the neutralization of the antibody and nitric oxide synthesis were determined. […]

[3] = test system: maspin and alpha interferon-a; assay: Maspin and alpha interferon in breast cancer tissue and neutrophils of treated subjects; type: in vivo, human; settings: malignant breast cancer tissue and non-malignant neutrophils in breast cancer
Excerpt: Expression of maspin, a serine protease inhibitor (serpin) known to be a potent anticancer protein, is severely impaired in breast cancer tissue. […] Similarly, production of alpha interferon-a, a widely used anticancer cytokine noted for its antiproliferative and anticancer property, is severely impaired in both malignant breast cancer tissue and non-malignant neutrophils in breast cancer. As with maspin, increases in nitric oxide levels increased production of alpha-interferon to normal ranges. By administering an agent of the instant invention, the auto immunity that is T-cell induced is improved through the neutrophils.

[4] = test system: insulin-activated nitric oxide synthase (IANOS); assay: Assay of IANOS of human erythrocytes; type: biochemical
Method: Both biologic and non-biologic materials for were screened for their ability to activate human erythrocytes IANOS. […] The protein was purified to homogeneity from an aqueous extract (pH 7.4 buffer) by the combination of DEAE cellulose chromatography and SEPHADEX® gel filtration techniques.
Insulin-activated nitric oxide synthase (IANOS) activity of the erythrocyte suspension was carried out by determining the conversion of oxyhemoglobin to methemoglobin using standard methods. Purification of insulin activated nitric oxide synthase (from human erythrocyte membranes) was carried out by DEAE cellulose chromatography.

Molecule | time until production of nitric oxide returned to normal ([1]; low dose aspirin (15 mg) co-administered with the agent, patients who developed resistance (insulin receptor down-regulation)) [min] | cancers in which particularly effective ([2]; non-Hodgkin's lymphoma, brain cancer, breast cancer with mastectomy, lung cancer (non-small cell)) | comparative effect of both agents ([2]; pancreatic cancer and bone cancer) | effect against a wide variety of cancers ([2]; topical, cancer patients, as shown in Table 1) | systemic NO levels ([1]; after administration) | alpha interferon-a [3] | maspin [3] | activation of erythrocyte IANOS [4]
CC(=O)Oc1ccccc1C(=O)O [aspirin, reference compound] | ≤ 30 | – | – | – | – | – | – | –
insulin | – | particularly effective | equally effective | effective | increase | increase | increase | potent activator
